Measurements published in US11793827B2, “Adenosine derivative and pharmaceutical composition comprising the same” (Brii Biosciences, Inc., priority 2021, dated 2023).

Key:
[1] = Liver S9 stability (human liver S9); format: in vitro ADME; conditions: for half-life at 1 µM: human liver S9, 37° C.; for Formation of EFdA at 30 min: human liver S9, 30 min
Protocol: Add 600 μL/well stop solution (cold in 4° C., including 100 ng/mL Tolbutamide/100 ng/mL Labetalol) to terminate the TO plate, then put it on ice. Dispense 840 μL/well S9 solution to 96-well plate as reservoir according to plate map. Then add 100 μL/well to every plate by Apricot. Incubate S9 solution and compound at 37° C. for about 10 min except NCF60 and TO. After adding S9 solution and 98μ LPB buffer to NCF60, incubate at 37° C. without pre-warming, start timer 1. After 60 min, add 600 μL/well stop solution to terminate the reaction. After pre-warming, dispense 760 μL/well cofactor solution to 96-well plate as reservoir according to plate map. Then add 98 μL/well to every plate by Apricot to start reaction. Incubate at 37° C., start timer 2, Add 600 μL/well stop solution (cold in 4° C., including 100 ng/mL Tolbutamide and Labetalol) to terminate the reaction. Samples are centrifuged at 4000 rpm for 20 min. While centrifuging, load 8× new 96-well plate with 300 μL HPLC water, then transfer 100 μL supernatant, mix with water for LC/MS/MS, transferred to Bioanalytical Services for LC-MS/MS analysis. Use equation of first order kinetics [NT]1/2 and CL: Equation of first order kinetics: [formula] [formula] [formula] [formula]

[2] = Plasma stability (human plasma); conditions: for Formation of EFdA at 30 min: human plasma; for half-life at 2 µM: human, pH 7.4
Protocol: The pooled frozen plasma was thawed in a water bath at 37° C. prior to experiment. Plasma was centrifuged at 4000 rpm for 5 min and the clots were removed if any. The pH will be adjusted to 7.4±0.1 if required.
Preparation of test compounds and positive control (propantheline bromide): 1 mM intermediate solution was prepared by diluting 10 μL of the stock solution with 90 μL MeOH; 1 mM intermediate of positive control Propantheline was prepared by diluting 10 μL of the stock solution with 90 μL ultrapure water. 100 μM dosing solution was prepared by diluting 20 μL of the intermediate solution (1 mM) with 180 μL MeOH. 98 μL of blank plasma was spiked with 2 μL of dosing solution (100 μM) to achieve 2 μM of the final concentration in duplicate and samples were incubated at 37° C. in a water bath. […] Centrifuged sample plates at 4,000 rpm for 10 min. An aliquot of supernatant (100 μL) was transferred from each well to another plates.

Row | half-life at 1 µM [1] [min] | Formation of EFdA at 30 min [1] | Formation of EFdA at 30 min [2] | half-life at 2 µM ([2]; pooled plasma) [min] | Compound | half-life at 2 µM ([2]; plasma) [min]
1 | < 50 | Yes | Yes | < 50 | C#C[C@@]12COC(=O)OCCCCCC(=O)OC1C[C@H](n1cnc3c(N)nc(F)nc31)O2 (stereo in doubt) [Compound 29, (1R,13R,15R)-15-(6-amino-2-fluoro-9H-purin-9-yl)-13-ethynyl-2,9,11,14-tetraoxabicyclo[11.3.0]hexadecane-3,10-dione] | 
2 | < 50 | Yes | No | 50 to 200 | C#C[C@@]12COC(=O)OCC3CCCCC3COC(=O)OC1C[C@H](n1cnc3c(N)nc(F)nc31)O2 (stereo in doubt) [Compound 30, (6R,8R,10R)-8-(6-amino-2-fluoro-9H-purin-9-yl)-10-ethynyl-3,5,9,12,14-pentaoxatricyclo[14.4.0.06,10]icosane-4,13-dione] | 
3 | < 50 | Yes | No | > 200 | C#C[C@]1(COC(=O)CC23CC4CC(CC(C4)C2)C3)O[C@@H](n2cnc3c(N)nc(F)nc32)C[C@@H]1O [Compound 1, ((2R,3S,5R)-5-(6-amino-2-fluoro-9H-purin-9-yl)-2-ethynyl-3-hydroxy-tetrahydrofuran-2-yl)methyl 2-(1-adamantyl) acetate] | 
4 | < 50 | Yes | No | < 50 | C#C[C@]1(COC(=O)C23CC4CC(CC(C4)C2)C3)O[C@@H](n2cnc3c(N)nc(F)nc32)C[C@@H]1O [Compound 3, ((2R, 3S, 5R)-5-(6-amino-2-fluoro-9H-purin-9-yl)-2-ethynyl-3-hydroxy-tetrahydrofuran-2-yl)methyl adamantane-1-carboxylate] | 
5 | < 50 | Yes | Yes | > 200 | C#C[C@]1(COC(=O)OC23CC4CC(CC(C4)C2)C3)O[C@@H](n2cnc3c(N)nc(F)nc32)C[C@@H]1O [Compound 4, ((2R, 3S, 5R)-5-(6-amino-2-fluoro-9H-purin-9-yl)-2-ethynyl-3-hydroxy-tetrahydrofuran-2-yl)methyl 1-adamantyl carbonate] | 
6 | < 50 | Yes | No | > 200 | C#C[C@]1(COC(=O)OC23CC4CC(CC(C4)C2)C3)O[C@@H](n2cnc3c(N)nc(F)nc32)C[C@@H]1OC(=O)OC12CC3CC(CC(C3)C1)C2 [Compound 6, (((2R,3S,5R)-3-((((1-adamantyl)oxy)carbonyl)oxy)-5-(6-amino-2-fluoro-9H-purin-9-yl)-2-ethynyltetrahydrofuran-2-yl)methyl) 1-adamantyl carbonate] | 
7 | < 50 | Yes | Yes | 50 to 200 | C#C[C@]1(CO)O[C@@H](n2cnc3c(N)nc(F)nc32)C[C@@H]1OC(=O)OCCC12CC3CC(CC(C3)C1)C2 [Compound 8, ((2R,3S,5R)-5-(6-amino-2-fluoro-9H-purin-9-yl)-2-ethynyl-2-(hydroxymethyl)tetrahydrofuran-3-yl) 2-(1-adamantyl)ethyl carbonate] | 
8 | < 50 | Yes | No | > 200 | C#C[C@]1(COC(=O)OCCC23CC4CC(CC(C4)C2)C3)O[C@@H](n2cnc3c(N)nc(F)nc32)C[C@@H]1OC(=O)OCCC12CC3CC(CC(C3)C1)C2 [Compound 9, ((2R,3S,5R)-2-((((2-(1-adamantyl)ethoxy)carbonyl)oxy)methyl)-5-(6-amino-2-fluoro-9H-purin-9-yl)-2-ethynyltetrahydrofuran-3-yl) 2-(1-adamantyl)ethyl carbonate] | 
9 | < 50 | Yes |  |  | C#C[C@]1(CO)O[C@@H](n2cnc3c(N)nc(F)nc32)C[C@@H]1OC(=O)OCCCC12CC3CC(CC(C3)C1)C2 [Compound 11, ((2R,3S,5R)-5-(6-amino-2-fluoro-9H-purin-9-yl)-2-ethynyl-2-(hydroxymethyl)tetrahydrofuran-3-yl) 3-(1-adamantyl)propyl carbonate] | 
10 | < 50 | Yes |  |  | C#C[C@]1(CO)O[C@@H](n2cnc3c(N)nc(F)nc32)C[C@@H]1OC(=O)OCCCCC12CC3CC(CC(C3)C1)C2 [Compound 13, ((2R,3S,5R)-5-(6-amino-2-fluoro-9H-purin-9-yl)-2-ethynyl-2-(hydroxymethyl)tetrahydrofuran-3-yl) 4-(1-adamantyl)butyl carbonate] | 
11 | < 50 | Yes | Yes | < 50 | C#C[C@]1(COC(=O)CCC23CC4CC(CC(C4)C2)C3)O[C@@H](n2cnc3c(N)nc(F)nc32)C[C@@H]1O [Compound 14, ((2R, 3S, 5R)-5-(6-amino-2-fluoro-9H-purin-9-yl)-2-ethynyl-3-hydroxy-tetrahydrofuran-2-yl)methyl 3-(1-adamantyl)propanoate] | 
12 | < 50 | Yes | Yes | < 50 | C#C[C@]1(COC(=O)CCCC23CC4CC(CC(C4)C2)C3)O[C@@H](n2cnc3c(N)nc(F)nc32)C[C@@H]1O [Compound 15, ((2R, 3S, 5R)-5-(6-amino-2-fluoro-9H-purin-9-yl)-2-ethynyl-3-hydroxy-tetrahydrofuran-2-yl)methyl 4-(1-adamantyl)butanoate] | 
13 | < 50 | Yes | Yes | > 200 | C#C[C@@]12COC(=O)CCCCCOC(=O)O[C@H]1C[C@H](n1cnc3c(N)nc(F)nc31)O2 [Compound 17, (11aR,13R,14aS)-13-(6-amino-2-fluoro-9H-purin-9-yl)-11a-ethynyloctahydro-11H-furo[3,2-d][1,3,7]trioxacyclotridecine-2,9(4H)-dione] | 
14 | < 50 | Yes | No | < 50 | C#C[C@]1(COC(=O)OCCC23CC4CC(CC(C4)C2)C3)O[C@@H](n2cnc3c(N)nc(F)nc32)C[C@@H]1OC(=O)C(C)C [Compound 19, ((2R,3S,5R)-2-((((2-(1-adamantyl)ethoxy)carbonyl)oxy)methyl)-5-(6-amino-2-fluoro-9H-purin-9-yl)-2-ethynyltetrahydrofuran-3-yl) isobutyrate] | 
15 | < 50 | Yes |  |  | C#C[C@]1(COC(=O)OCC23CC4CC(CC(C4)C2)C3)O[C@@H](n2cnc3c(N)nc(F)nc32)C[C@@H]1OC(=O)C(C)C [Compound 20, ((2R,3S,5R)-2-(((((1-adamantyl)methoxy)carbonyl)oxy)methyl)-5-(6-amino-2-fluoro-9H-purin-9-yl)-2-ethynyltetrahydrofuran-3-yl) isobutyrate] | 
16 | < 50 | Yes | Yes | 50 to 200 | C#C[C@]1(COC(=O)OCCCC23CC4CC(CC(C4)C2)C3)O[C@@H](n2cnc3c(N)nc(F)nc32)C[C@@H]1OC(=O)C(C)C [Compound 21, ((2R,3S,5R)-2-((((3-(1-adamantyl)propoxy)carbonyl)oxy)methyl)-5-(6-amino-2-fluoro-9H-purin-9-yl)-2-ethynyltetrahydrofuran-3-yl) isobutyrate] | 

Row | Compound | half-life at 1 µM [1] [min] | Formation of EFdA at 30 min [1] | Formation of EFdA at 30 min [2] | half-life at 2 µM ([2]; pooled plasma) [min] | half-life at 2 µM ([2]; plasma) [min]
17 | C#C[C@@]12COC(=O)OCCCOC(=O)O[C@H]1C[C@H](n1cnc3c(N)nc(F)nc31)O2 [Compound 16, (10aR,12R,13aS)-12-(6-amino-2-fluoro-9H-purin-9-yl)-10a-ethynylhexahydro-4H,10H-furo[3,2-d][1,3,7,9]tetraoxacyclododecine-2,8-dione] |  |  | Yes |  | 50 to 200
18 | C#C[C@]1(COC(=O)OCCC23CC4CC(CC(C4)C2)C3)O[C@@H](n2cnc3c(N)nc(F)nc32)C[C@@H]1OC(=O)OCC [Compound 18, ((2R,3S,5R)-2-((((2-(1-adamantyl)ethoxy)carbonyl)oxy)methyl)-5-(6-amino-2-fluoro-9H-purin-9-yl)-2-ethynyltetrahydrofuran-3-yl) ethyl carbonate] | < 50 | Yes | No |  | < 50
